Test results from patent US8778970B2, “Benzyl piperidine compound” (Dainippon Sumitomo Pharma Co., Ltd, priority 2009, dated 2014).

Assays:
[1] = molecular target: human serotonin transporter (h-SERT) (Homo sapiens (Human), UniProt P31645); assay: [3H] citalopram binding screening test for inhibitory effect on human serotonin reuptake; conditions: h-SERT/CHO membrane preparation, [3H] citalopram approx. 2 nM; read-out: h-SERT binding inhibition constant (Ki)
Experimental: Screening Test Using [^3H] Citalopram Binding for Evaluating Inhibitory Effect on Human Serotonin Reuptake
1-1 Cells Used and Preparation of Membrane Preparation
CHO cells expressing a human serotonin transporter (h-SERT) (h-SERT/CHO) were used in the experiment. The cells were cultured in F12 containing 10% FCS, 500 μg/ml Geneticin and 100 U/ml penicillin-100 μg/ml streptomycin (all manufactured by Sigma-Aldrich Corp.) in a 5% CO2 incubator. The cells dissociated and collected therefrom using SERT buffer (50 mM Tris-HCl containing 120 mM NaCl and 5 mM KCl (pH=7.4)) were homogenized using a Teflon (R) homogenizer and then centrifuged (50,000×g, 30 min, 4° C.). The precipitate was resuspended in an appropriate amount of SERT buffer and stored at −80° C. until use. The amount of the protein in the membrane preparation were determined using bovine serum albumin (manufactured by Sigma-Aldrich Corp.) as standards and Dye Reagent Concentrate (manufactured by Bio-Rad Laboratories, Inc.).
1-2 Receptor Binding Experiment
[^3H] citalopram binding was assayed according to the method of Owens et al. [Owens M. J. et al., J. Pharm. […] Specifically, 50 μl of [^3H] citalopram (final concentration: approximately 2 nM) diluted with SERT buffer, 149 μl of the h-SERT/CHO membrane preparation (40 μg/well in terms of the amount of the protein), and 1 μl of a solution of a test drug dissolved in DMSO were added to prepare 200 μl in total of a solution. This solution was reacted at room temperature for 60 minutes and then immediately suction-filtered at a low pressure using a glass fiber filter paper coated with a 0.05% aqueous polyethyleneimine solution. The glass fiber filter paper was washed twice with 250 μl of SERT buffer and then transferred to a glass vial containing 4 ml of ACS-II (manufactured by GE Healthcare (formerly Amersham Biosciences)). Radioactivity remaining on the filter paper was measured using a liquid scintillation counter. The nonspecific binding of [^3H] citalopram was defined as a binding amount in the presence of 1 μM clomipramine.
The smaller numeric value of the h-SERT binding inhibition constant Ki means a higher inhibitory effect on human serotonin reuptake.

[2] = molecular target: human serotonin 1A receptor (h-5-HT1A) (Homo sapiens (Human), UniProt P08908); assay: [3H] 8-OH-DPAT binding test for affinity for human serotonin 1A receptor; conditions: h-5-HT1A/CHO membrane preparation, [3H] 8-OH-DPAT 0.5 nM; read-out: h-5-HT1A binding inhibition constant (Ki)
human serotonin 1A receptor (h-5-HT1A), sequence (P08908 whole entry): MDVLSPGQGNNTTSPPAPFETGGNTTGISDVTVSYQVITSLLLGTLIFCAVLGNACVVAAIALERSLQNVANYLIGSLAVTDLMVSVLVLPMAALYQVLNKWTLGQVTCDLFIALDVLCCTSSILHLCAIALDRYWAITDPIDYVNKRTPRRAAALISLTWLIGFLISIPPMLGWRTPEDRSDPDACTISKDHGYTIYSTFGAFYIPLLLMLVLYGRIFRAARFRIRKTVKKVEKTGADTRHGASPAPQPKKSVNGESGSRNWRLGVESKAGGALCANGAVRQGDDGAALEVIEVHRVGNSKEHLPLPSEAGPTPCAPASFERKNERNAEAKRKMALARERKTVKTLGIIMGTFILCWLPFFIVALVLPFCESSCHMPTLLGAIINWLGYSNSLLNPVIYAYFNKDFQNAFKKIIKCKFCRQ
Experimental: [^3H] 8-OH-DPAT Binding Test for Evaluating Affinity for Human Serotonin 1A Receptor
2-1 Cells Used and Preparation of Membrane Preparation
CHO cells expressing a human serotonin 1A receptor (h-5-HT1A) (h-5-HT1A/CHO) were used in the experiment. The cells were cultured in F12 containing 10% FCS, 500 μg/ml Geneticin and 100 U/ml penicillin-100 μg/ml streptomycin (all manufactured by Sigma-Aldrich Corp.) in a 5% CO2 incubator. Membrane preparation were prepared according to the method of Yabuuchi et al.^3). Specifically, the cells dissociated and collected therefrom using 50 mM Tris-HCl (pH=7.4) were homogenized using a Teflon® homogenizer and then centrifuged (48,000×g, 20 min, 4° C.). The precipitate was resuspended in an appropriate amount of 50 mM Tris-HCl (pH=7.4) and stored at −80° C. until use. The amount of the protein in the membrane preparation were determined using bovine serum albumin (manufactured by Sigma-Aldrich Corp.) as standards and Dye Reagent Concentrate (manufactured by Bio-Rad Laboratories, Inc.).
2-2 Receptor Binding Experiment
50 μl of [^3H] 8-OH-DPAT (final concentration: 0.5 nM), 1 μl of a test drug solution, and 149 μl of the h-5-HT1A/CHO membrane preparation (25 μg/well in terms of the amount of the protein) were added into a buffer containing 50 mM Tris-HCl (pH=7.4) and 4 mM CaCl2, and 200 μl in total of the reaction solution was used in the assay. The reaction solution was reacted at room temperature for 30 minutes and then immediately suction-filtered at a low pressure using a glass fiber filter paper. The glass fiber filter paper was washed twice with 250 μl of 50 mM Tris-HCl (pH=7.4) and then added to a counting vial containing 4 ml of ACS-II (manufactured by GE Healthcare (formerly Amersham Biosciences)). Receptor binding-derived radioactivity remaining on the filter paper was measured using a liquid scintillation counter. The nonspecific binding was defined as a binding amount in the presence of 10 μM 8-OH-DPAT.
8-OH-DPAT. Moreover, the Kd value was the binding dissociation constant of [^3H] […] The smaller numeric value of the h-5-HT1A binding inhibition constant Ki means higher affinity for human serotonin 1A receptors.

CYP2D6 [3] = molecular target: T1, CYP2D6 (Homo sapiens (Human), UniProt P10635); assay: CYP2D6 inhibition screening test (bufuralol 1'-hydroxylation, pooled human liver microsomes); format: in vitro ADME; conditions: substrate bufuralol, 37° C. 10 min
T1 sequence (P10635 whole entry): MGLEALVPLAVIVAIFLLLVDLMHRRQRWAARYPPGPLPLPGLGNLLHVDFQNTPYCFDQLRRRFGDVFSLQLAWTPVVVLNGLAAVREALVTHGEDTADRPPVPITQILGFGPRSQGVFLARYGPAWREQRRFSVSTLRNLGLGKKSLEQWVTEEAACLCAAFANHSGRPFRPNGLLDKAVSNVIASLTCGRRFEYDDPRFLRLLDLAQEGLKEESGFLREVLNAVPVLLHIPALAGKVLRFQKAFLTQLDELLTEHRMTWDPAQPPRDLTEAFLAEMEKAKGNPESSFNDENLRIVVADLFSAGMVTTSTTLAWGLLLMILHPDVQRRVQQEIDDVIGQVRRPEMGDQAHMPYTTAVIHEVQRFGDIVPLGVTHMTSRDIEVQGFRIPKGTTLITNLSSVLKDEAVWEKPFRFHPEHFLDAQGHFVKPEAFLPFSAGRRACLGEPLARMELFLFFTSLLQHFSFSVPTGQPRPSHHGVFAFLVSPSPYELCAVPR
Experimental: CYP2D6 Inhibition Screening Test
Bufuralol hydrochloride was purchased from Toronto Research Chemicals Inc., and pooled human liver microsomes were purchased from Xenotech, LLC.
Bufuralol hydrochloride was dissolved in DMSO at a concentration of 1.0 mM and then diluted 20-fold with distilled water.
• 1. A 10 mM solution of a test drug in DMSO was serially diluted with DMSO at four 5-fold dilutions to prepare 10, 2, 0.4 and 0.08 mM DMSO solutions. • 2. Each test drug solution of step 1 or DMSO was diluted 160-fold with the human liver microsome solution and dispensed at a concentration of 80 μL/well to a microplate. • 3. 10 μL of the substrate solution and 10 μL of the β-NADPH solution were added to each well of step 2, and the mixture was incubated at 37° C. for 10 min. • 4. The reaction was terminated by the addition of 300 μL of methanol. • 5. The reaction mixture was filtered and analyzed by LC-MS/MS. 3-4 Quantification and Calculation
The amount of 1′-hydroxybufuralol formed was determined by LC-MS/MS, and this value was used as the metabolic activity value of CYP2D6 in each well. The residual activity of each sample-supplemented group was determined by comparison with the activity in the well containing DMSO used as a test drug. IC50 values in CYP2D6 inhibition were determined from the test drug concentrations. […] The larger numeric value of IC50 in CYP2D6 inhibition means weaker CYP2D6 inhibition.

CYP2D6 [4] = molecular target: T1, CYP2D6; assay: Screening test on contribution ratio of CYP2D6 in human liver microsomal metabolism; format: in vitro ADME; conditions: 1 mg/mL human liver microsomes, 1 μM test substance, with/without 4 μM quinidine; values marked *) are reference values due to relative stability
Experimental: Screening Test on Contribution Ratio of CYP2D6 in Human Liver Microsomal Metabolism
0.2 mL of a 50 mM potassium phosphate buffer (pH 7.4) containing 3 mM (final concentration) NADPH (manufactured by Oriental Yeast Co., Ltd.), 1 mg/mL human liver microsomes (manufactured by Xenotech, LLC) and 1 μM test substance was warmed in a water bath at 37° C. for metabolic reaction. After 15- or 30-minute reaction, the reaction was terminated by the addition of a 3-fold volume of methanol with respect to the reaction solution and subsequent stirring. This reaction solution was centrifuged to precipitate proteins. Then, the supernatant was collected and subjected to LC-MS/MS analysis. The results were analyzed as follows:
The test substance was quantified, and time-dependent change in its residual amount was logarithmically plotted. The rate of metabolism was calculated from the slope.
The ratio of the rate of metabolism in the presence of quinidine added at 4 μM (final concentration) to the reaction solution to that in the absence of quinidine was used as the contribution ratio of enzymes other than CYP2D6. The remaining portion was used as the contribution ratio of CYP2D6. Specifically, it was calculated according to the formula: Contribution ratio (%)={1−(Rate of metabolism [in the presence of quinidine]/Rate of metabolism [in the absence of quinidine])}×100 The smaller numeric value of the contribution ratio of CYP2D6 means the small contribution of CYP2D6.

human serotonin transporter (h-SERT), sequence (P31645 whole entry): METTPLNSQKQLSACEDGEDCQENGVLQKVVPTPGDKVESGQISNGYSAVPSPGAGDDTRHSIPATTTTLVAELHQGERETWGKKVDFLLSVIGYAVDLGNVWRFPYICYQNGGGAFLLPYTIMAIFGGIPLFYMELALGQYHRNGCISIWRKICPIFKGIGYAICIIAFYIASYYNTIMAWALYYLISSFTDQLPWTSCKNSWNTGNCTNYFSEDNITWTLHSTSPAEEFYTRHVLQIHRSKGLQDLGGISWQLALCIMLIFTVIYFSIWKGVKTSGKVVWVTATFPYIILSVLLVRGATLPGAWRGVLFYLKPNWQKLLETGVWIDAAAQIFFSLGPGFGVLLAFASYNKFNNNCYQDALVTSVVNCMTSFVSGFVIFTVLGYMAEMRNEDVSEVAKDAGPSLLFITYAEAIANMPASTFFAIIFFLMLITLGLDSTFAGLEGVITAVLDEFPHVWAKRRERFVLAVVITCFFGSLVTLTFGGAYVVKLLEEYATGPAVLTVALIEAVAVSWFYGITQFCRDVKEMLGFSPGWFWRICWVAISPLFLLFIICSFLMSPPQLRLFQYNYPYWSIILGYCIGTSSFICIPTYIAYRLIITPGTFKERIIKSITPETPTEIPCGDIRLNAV

| SMILES | Ki [1] [nM] | Ki [2] [nM] | IC50 (CYP2D6 [3]) [nM] | CYP2D6 contribution ratio (CYP2D6 [4]) |
| --- | --- | --- | --- | --- |
| COCCOc1cc(CC2CCN(CCc3ccc4occc(=O)c4c3)CC2)ccc1Br.Cl [Compound 5-6, 6-(2-{4-[4-Bromo-3-(2-methoxyethoxy)benzyl]piperidin-1-yl}ethyl)-4H -chromen-4-one hydrochloride] | 0.27 | 2 | 28300 | 31% |
| Cl.O=c1ccoc2ccc(CCN3CCC(Cc4ccc(Br)c(OCCO)c4)CC3)cc12 [Compound 5-7, 6-(2-{4-[4-Bromo-3-(2-hydroxyethoxy)benzyl]piperidin-1-yl}ethyl)-4H-chromen-4-one hydrochloride] | 3.5 | 2.1 | 34900 | 9.2*) % |
| O=C1CCOc2ccc(CCN3CCC(Cc4ccc(Br)c(O)c4)CC3)cc21 [Compound 5-8, 6-{2-[4-(4-Bromo-3-hydroxybenzyl)piperidin-1-yl]ethyl}-2,3-dihydro-4H-chromen-4-one] | 6.5 | 1.3 | 9900 | 98% |
| O=c1ccoc2ccc(CCN3CCC(Cc4ccc(Br)c(O)c4)CC3)cc12 [Compound 5-9, 6-{2-[4-(4-Bromo-3-hydroxybenzyl)piperidin-1-yl]ethyl}-4H-chromen-4-one] | 1.7 | 0.27 | 16800 | 46% |
| COCCOc1cc(CC2CCN(CCc3ccc4occ(O)c(=O)c4c3)CC2)ccc1Br [Compound 5-14, 6-(2-{4-[4-Bromo-3-(2-methoxyethoxy)benzyl]piperidin-1-yl}ethyl)-3-hydroxy-4H-chromen-4-one] | 0.88 | 2.5 | 37600 | 8% |
| Oc1cc(CC2CCN(CCc3ccc4c(c3)C(O)CCO4)CC2)ccc1Br (stereo not drawn) [Compound 5-15, 6-{2-[4-(4-Bromo-3-hydroxybenzyl)piperidin-1-yl]ethyl}-3,4-dihydro-2H-chromen-4-ol] | 41 | 8.5 | 40300 | 0*) % |
